Data taken from patent US12378245B2, “Crystalline forms of an RSK inhibitor” (PHOENIX MOLECULAR DESIGNS, priority 2019, dated 2025).

How the values were obtained:
Assay type in all cases: physicochemical
[1] = Stability Studies - One Week Study; details: 40° C./75% RH or 80° C./under ambient light for 1 week
Description: About 15 mg of Compound 1, Forms 1 and 2 were separately placed at either 40° C./75% RH or 80° C./under ambient light for 1 week. The resulting solids were analysed by XRPD and HPLC purity. No changes in Form 1 or Form 2 were observed under these conditions after 1 week.

[2] = Stability Studies - Eight Week Study; details: 40° C./75% RH (uncapped), 80° C. (capped), ambient light and temperature (approx. 22° C.)
Description: About 5 mg of Compound 1, Form 1 was weighed into twenty-four, 1.5 mL glass vials. Each vial was placed at either 40° C./75% RH (uncapped vial), 80° C. (capped vial) and under ambient light and temperature (approx. 22° C., capped vial) for a total of 8 weeks. […] was removed from each condition for XRPD, ^1H NMR and HPLC purity analysis at 1 week, 2 weeks, 4 weeks and 8 weeks.

[3] = Dynamic Vapor Sorption (DVS); details: for form by post-DVS XRPD analysis: after exposure to DVS humidity conditions
Description: Approximately, 10-20 mg of sample was placed into a mesh vapour sorption balance pan and loaded into a DVS Intrinsic dynamic vapour sorption balance by Surface Measurement Systems. The sample was subjected to a ramping profile from 40-90% relative humidity (RH) at 10% increments, maintaining the sample at each step until a stable weight had been achieved (dm/dt 0.004%, minimum step length 30 minutes, maximum step length 500 minutes) at 25° C. After completion of the sorption cycle, the sample was dried using the same procedure to 0% RH and then a second sorption cycle back to 40% RH. Two cycles were performed. The weight change during the sorption/desorption cycles were plotted, allowing for the hygroscopic nature of the sample to be determined. XRPD analysis was then carried out on any solid retained.

| SMILES | changes by XRPD and HPLC purity [1] | change in purity by HPLC ([2]; 8 weeks) | change by XRPD and NMR analysis ([2]; after 8 weeks) | form by post-DVS XRPD analysis ([3]; listed as Form 1 of Compound 1, hydrochloride) | water uptake by DVS ([3]; at 90% RH, 25° C.) | change in mass / mass uptake by DVS ([3]; at 90% RH, 25° C., listed as Form 1 of Compound 1, hydrochloride) | hygroscopic nature by DVS ([3]; ramping 40-90% RH, 25° C., two cycles) | form by post-DVS XRPD analysis ([3]; listed as Form 2 of Compound 1, hydrochloride) | change in mass / mass uptake by DVS ([3]; at 90% RH, 25° C., listed as Form 2 of Compound 1, hydrochloride) |
| --- | --- | --- | --- | --- | --- | --- | --- | --- | --- |
| C[C@@H]1CNC(=O)c2cc3ccc(C(=O)Nc4cnn(Cc5ccc(N)cc5)c4)nc3n21.Cl [Compound 1, Form 1, (R)—N-(1-(4-aminobenzyl)-1H-pyrazol-4-yl)-9-methyl-6-oxo-6,7,8,9-tetrahydropyrido[3′,2′:4,5]pyrrolo[1,2-a]pyrazine-2-carboxamide hydrochloride] | No changes | no significant change | no change | remained as Form 1 | 0.2 equiv. of water | +0.8% | slightly hygroscopic | – | – |
| C[C@@H]1CNC(=O)c2cc3ccc(C(=O)Nc4cnn(Cc5ccc(N)cc5)c4)nc3n21.Cl [Compound 1, Form 2, (R)—N-(1-(4-aminobenzyl)-1H-pyrazol-4-yl)-9-methyl-6-oxo-6,7,8,9-tetrahydropyrido[3′,2′:4,5]pyrrolo[1,2-a]pyrazine-2-carboxamide hydrochloride] | – | – | – | – | – | – | – | no change in form | 1.8% |
